According to article PMC12040169 (PLOS Biology, 2025):

Test: in vitro
Details: human, hela cells, % viability

| Structure (SMILES) | viability at 28.5 h, 10 µM [%] |
| --- | --- |
| CN(Cc1nc2c(s1)CCCC2)C(=O)COc1ccc2nncn2n1 [CBK306758] | 98.9 |
| COc1ccc(-n2ncc3c2CC(C)(C)CC3NS(C)(=O)=O)cc1 (stereo not shown) [CBK306759] | 88.7 |
| CCc1nccn1CCC(=O)NC1CCN(c2ccc(F)cc2)CC1 [CBK306760] | 90.1 |
| CN(CC(=O)NCC1CCN(c2cccc(Cl)c2)C1)Cc1cccnc1 (stereo not shown) [CBK306761] | 93.4 |
| COc1cc(OC)cc(-c2c(C)ncnc2OC)c1 [CBK306765] | 91.4 |
| CC(=O)N1CCn2nc(C(=O)N(CCO)Cc3ccccc3)cc2C1 [CBK306769] | 89.3 |
| CCCS(=O)(=O)NC1CC(C)(C)Cc2c1cnn2-c1ccc(F)cc1 (stereo not shown) [CBK306770] | 113 |
| CCn1nc(C)c(NC(=O)CN(C)Cc2ccccc2C(F)(F)F)c1C [CBK306771] | 106 |
| CN(C)S(=O)(=O)CCNC(=O)c1ccc(-c2ccccc2CO)cc1 [CBK306773] | 95.6 |
| O=C(c1ccccn1)C1CCCN(c2nccc(CCC(F)(F)F)n2)C1 (stereo not shown) [CBK306775] | 109 |
| CCCc1cc(C(=O)N2CCCC(COc3cccc(F)c3)C2)[nH]n1 (stereo not shown) [CBK306776] | 85.3 |
| Cn1c(=O)n(C)c2cc(S(=O)(=O)NCC3(O)CCCNCC3)ccc21 (stereo not shown) [CBK306777] | 84.9 |
| CC(=O)OCc1c(C)cc(C)c(CN(C)C(C)c2ccon2)c1C (stereo not shown) [CBK306780] | 79.3 |
| CN(CCN1CCOCC1)c1nc2c(c(=O)[nH]1)Cc1ccccc1OC2 [CBK306783] | 75.4 |
| CC(=O)Nc1ccc(C(=O)N(Cc2ccccn2)CC2CCCO2)cn1 (stereo not shown) [CBK306784] | 83.7 |
| CCn1c(CC2CCN(c3ncc(C#N)c(N)n3)CC2)nn(C)c1=O [CBK306788] | 93.3 |
| COc1ccc(-n2ncc3c2CC(C)(C)CC3N)cc1 (stereo not shown) [CBK306789] | 80 |
| CCCn1ccnc1-c1cn(Cc2cc(C(C)(C)C)n[nH]2)nn1 [CBK306791] | 118 |
| Cn1c(CO)nnc1[C@H]1C[C@@H](NC(=O)CCc2ccc(F)cc2F)C1 [CBK306796] | 86.4 |
| Cc1c[nH]c(CN(C)c2cc([C@H]3C[C@@H](N)C3)nc(N3CCCC3)n2)n1 [CBK306798] | 84.4 |
| CCCOCC1CCN(C(=O)Nc2ccc(Oc3cccnc3)cc2)C1 (stereo not shown) [CBK306799] | 102 |
| CCCn1cnnc1C(C)NC(=O)Nc1ccnn1CC1CCCCC1 (stereo not shown) [CBK306800] | 105 |
| CN1CCC(Cc2nc(CC3CCCOC3)n(CC(F)(F)F)n2)CC1 (stereo not shown) [CBK306801] | 83.2 |

| Structure (SMILES) | viability at 28.5 h, 10 µM [%] |
| --- | --- |
| CCC(c1cccnc1)N(C)C(=O)c1ccc(=O)n(C)c1 (stereo not shown) [CBK306802] | 101 |
| COc1cccc(C(=O)NCCC(=O)N2CCC3(CC2)CNC(=O)O3)c1 [CBK306803] | 88.2 |
| CCc1noc(C)c1C(=O)NCc1cccnc1N(C)C1CCCCC1 [CBK306804] | 98.9 |
| CCOCCNC(=O)c1coc(COc2ccc3sc(C)nc3c2)n1 [CBK306805] | 109 |
| Cc1nccnc1N1CCC2(CCCN(CC3CCC3)C2=O)C1 (stereo not shown) [CBK306806] | 103 |
| CN(Cc1ccc(CN2CCOC(c3ccccc3)C2)o1)S(C)(=O)=O (stereo not shown) [CBK306808] | 88.2 |
| Cc1cc(=O)c2ccccc2n1CC(=O)N1CCC2(CCO2)CC1 [CBK306809] | 88.5 |
| CC(NC(=O)C1(Cn2ccnc2)CC1)c1cccnc1 (stereo not shown) [CBK306812] | 97.3 |
| CCCc1cc(C(=O)N2CCN(C)C3(CCNC(=O)CC3)C2)ccn1 (stereo not shown) [CBK306815] | 96.2 |
| Cc1nnnn1CCC(=O)NCCc1cn2ccccc2n1 [CBK306816] | 121 |
| Cc1ccc(C(=O)NC(CC(C)C)c2nnc3n2CCNCC3)c(F)c1 (stereo not shown) [CBK306817] | 85 |
| Cn1c(O)c(CCNc2cc([C@H]3C[C@@H](N)C3)nc(C3CC3)n2)cnc1=O [CBK306819] | 85 |
| O=c1c2c(-c3ccc(F)cc3)csc2ncn1CC1(CO)CCOCC1 [CBK306822] | 88 |
| CCN1CC2(CCC1=O)CCN(Cc1cccc(CCN)c1)CC2 [CBK306823] | 100 |
| Cn1c(N2CC[C@H](O)C2)nc2cc(C(=O)NCCc3cscn3)ccc21 [CBK306824] | 88.5 |
| CC(C)c1nc(CCNC(=O)C2(Cn3ccnc3)CC2)no1 [CBK306828] | 86.2 |
| CC(C)[C@H]1CN(Cc2cc(C#N)n(C)c2)C[C@@H]1NC(=O)C1CCC1 [CBK306832] | 91.6 |
| COc1cncc(C(NC(=O)c2cc(=O)cc(C)o2)[C@H]2C[C@@H](O)C2)c1 (stereo partly shown) [CBK306833] | 97.5 |
| CCn1nc(-c2ccc(C)o2)nc1CC1NC(=O)c2ccccc21 (stereo not shown) [CBK306834] | 87 |
| COc1ccccc1C(=O)N1CCN(c2nc3c(s2)c(C)nn3C)CC1 [CBK306836] | 86.6 |
| CSc1cccc(CN(C)C(=O)c2cc(C#N)c(=O)[nH]c2C)c1 [CBK306839] | 93 |
| Cc1ccc(OCc2occc2C(=O)N2CCCCC(N)C2)cc1 (stereo not shown) [CBK306840] | 107 |
| O=C(c1coc(COc2cccc(F)c2)n1)N1CC(n2cccn2)C1 [CBK306842] | 77.2 |

| Structure (SMILES) | viability at 28.5 h, 10 µM [%] |
| --- | --- |
| CCC(NC(=O)Nc1cc(N2CCOCC2)ccc1Cl)c1cnn(C)c1 (stereo not shown) [CBK306844] | 114 |
| COCc1nc(NCCCn2c(C)cccc2=O)cc(C2CCOC2)n1 (stereo not shown) [CBK306845] | 90.9 |
| CCC1(C)CC(=O)c2cc(NC(=O)N3CCc4n[nH]cc4C3)ccc2O1 (stereo not shown) [CBK306846] | 90.3 |
| Cc1cc(C)n(CCNC2CCN(c3ccccc3C)CC2)c(=O)n1 [CBK306848] | 89.1 |
| CN(CCOc1ccccc1)c1cc(C2CC(N)C2)nc(N)n1 (stereo not shown) [CBK306849] | 97 |
| COc1cc2c(cc1-c1nccn1CC1CN(C(C)=O)CCO1)CCC2 (stereo not shown) [CBK306850] | 88.7 |
| COc1ncnc(C)c1-c1cc(C)c(OC)c(C)c1 [CBK306852] | 100 |
| CCOC(=O)N1CCN(C2CCCN(Cc3c(C)nn(C)c3Cl)C2)CC1 (stereo not shown) [CBK306853] | 96.2 |
| CN(CC(O)CO)C(=O)c1coc(COc2cccc(F)c2)n1 (stereo not shown) [CBK306854] | 88.5 |
| Cc1cccn2c(CN3CC(O)C3)c(C(=O)N3CCOCC3)nc12 [CBK306857] | 104 |
| CN(C)c1ccc(-c2nc(N(C)C)n(C)n2)cn1 [CBK306858] | 90.1 |
| Cc1ccc(F)c(OC2(C(=O)O)CCN(Cc3cnc(C)nc3)CC2)c1 [CBK306860] | 100 |
| COc1nccc(N2CCC3(CCCN(CC4CCC4)C3=O)C2)c1C#N (stereo not shown) [CBK306861] | 84.3 |
| CCn1cc(CN(CC(C)C)C(=O)c2c(C)nc3ccccn23)cn1 [CBK306862] | 97.8 |
| CCC(O)CNc1ccc(C(=O)N2CCC(N3CCOCC3)CC2)cn1 (stereo not shown) [CBK306865] | 95.1 |
| Cc1cccc(C(=O)NC(CC(C)C)c2nnc3n2CCNCC3)n1 (stereo not shown) [CBK306866] | 108 |
| COc1ccccc1-n1nc(-c2ccncc2)nc1C(C)NS(C)(=O)=O (stereo not shown) [CBK306868] | 98 |
| Cn1nnnc1SCCNC(=O)Nc1cccc(CN2CCCCC2)c1 [CBK306872] | 97.3 |
| CC1CCCN(C(=O)c2coc(COc3ccc(F)cc3)n2)C1 (stereo not shown) [CBK306874] | 85.5 |
| CNc1nc(NCCCn2c(C)cccc2=O)cc(C2CCOC2)n1 (stereo not shown) [CBK306875] | 117 |
| CCCN(C(=O)c1coc(COc2ccc3sc(C)nc3c2)n1)C1CC1 [CBK306878] | 84 |
| CCN(C(=O)Cn1cccc(OC)c1=O)C1CCOC(C)(C)C1 (stereo not shown) [CBK306879] | 86.5 |
| CCN1CC2(CCCN(Cc3nnc(-c4cccnc4)o3)C2)CCC1=O (stereo not shown) [CBK306881] | 86.4 |

| Structure (SMILES) | viability at 28.5 h, 10 µM [%] |
| --- | --- |
| CCCC(=O)NC1CC(C)(C)Cc2nc(N3CCOCC3)ncc21 (stereo not shown) [CBK306883] | 94.7 |
| CC(C)c1nccc(CN2CCC(CCN3CCCC3=O)CC2)n1 [CBK306887] | 116 |
| O=C(CCNCCc1c[nH]c(=O)[nH]c1=O)Nc1cccc(Cl)c1 [CBK306889] | 86.3 |
| COCCN(Cc1cnn(C)c1)C(=O)c1nc2ccccn2c1F [CBK306892] | 100 |
| Cc1ncsc1CCN(C)C(=O)Cn1nc(C)c2ccccc2c1=O [CBK306893] | 86.3 |
| Cn1ccnc1CNc1nc(C(C)(C)C)nc2c1cnn2C [CBK306894] | 100 |
| Cc1nc(C2CC(=O)N(Cc3ccccn3)C2)n(-c2ccccc2F)n1 (stereo not shown) [CBK306895] | 89.6 |
| COc1ccc2c(c1)c(C(=O)N1CC(C)(C)C(C)(O)C1)c(C)n2C (stereo not shown) [CBK306896] | 77.2 |
| CC(C)N(C(=O)c1ccccc1-c1cnc2cccnn12)C(C)C [CBK306900] | 97.8 |
| COCCn1ccnc1C1CCN(C(=O)C(O)c2cccc(Cl)c2)CC1 (stereo not shown) [CBK306901] | 99.8 |
| CC(C)n1ccnc1CN1CCn2nc(CNc3cnccn3)cc2C1 [CBK306902] | 98.7 |
| Cc1cc(C)n(CCCC(=O)N2CCC3(CC2)CC(=O)N(C)C3)n1 [CBK306905] | 90.5 |
| Cc1nnc(SCC(=O)N2CCCN(c3ccc(F)cc3)CC2)s1 [CBK306908] | 88.7 |
| COCCn1cnnc1CN(C)C(=O)NCc1cc2ccccc2s1 [CBK306911] | 98.6 |
| CCCN1CC(NC(=O)c2cc(COc3cccc(F)c3)[nH]n2)CC1=O (stereo not shown) [CBK306912] | 82.2 |
| Cc1cccnc1CN(C)C(=O)c1cccc(NC(=O)C2CCCC2)c1 [CBK306913] | 82.9 |
| CC(=O)Oc1c(C)cc(CN(C)C(C)c2ccncc2)cc1C (stereo not shown) [CBK306915] | 73.2 |
| CCN(C(=O)Nc1ccc(-c2ccco2)cc1)C1CCOCC1 [CBK306916] | 95.8 |
| COC[C@H](C)Nc1ccc(C(=O)N2CCC(N3CCOCC3)CC2)cn1 [CBK306917] | 84.8 |
| Cc1nn2cc(CNC(=O)CN3CCOc4ccccc4C3)nc2s1 [CBK306921] | 89 |
| CCn1cc(Cl)c(C(=O)NC2CCN(c3cnccn3)CC2)n1 [CBK306922] | 95.5 |
| CCc1ocnc1C(=O)NC1CCCN(Cc2ccccc2F)C1 (stereo not shown) [CBK306924] | 104 |
